According to ChEMBL document CHEMBL3639003, “Heteroaryloxycarbocyclyl compounds as PDE10 inhibitors” (2015):

target: cAMP and cAMP-inhibited cGMP 3',5'-cyclic phosphodiesterase 10A (Homo sapiens, UniProt Q9Y233); test: IMAP TR-FRET Assay: Enzyme Activity. An IMAP TR-FRET assay was used to analyze the enzyme activity (Molecular Devices Corp., Sunnyvale Calif.). 5 uL, of serial diluted PDE10A (BPS Bioscience, San Diego, Calif.) or tissue homogenate was incubated with equal volumes of diluted fluorescein labeled cAMP or cGMP for 60 min in 384-well polystyrene assay plates (Corning, Corning, N.Y.) at room temperature. After incubation, the reaction was stopped by adding 60 uL, of diluted binding reagents and was incubated for 3 hours to overnight at room temperature. The plates were read on an Envision (Perkin Elmer, Waltham, Mass.) for time resolved fluorescence resonance energy transfer. The data were analyzed with GraphPad Prism (La Jolla, Calif.).Enzyme Inhibition. To check the inhibition profile, 5 uL, of serial diluted compounds were incubated with 5 uL, of diluted PDE10 enzyme (BPS Bioscience, San Diego, Calif.) or tissue homogenate in a 384-well polystyrene assay plate (Corning, Corning, N.Y.).
Sequence (Q9Y233 whole entry): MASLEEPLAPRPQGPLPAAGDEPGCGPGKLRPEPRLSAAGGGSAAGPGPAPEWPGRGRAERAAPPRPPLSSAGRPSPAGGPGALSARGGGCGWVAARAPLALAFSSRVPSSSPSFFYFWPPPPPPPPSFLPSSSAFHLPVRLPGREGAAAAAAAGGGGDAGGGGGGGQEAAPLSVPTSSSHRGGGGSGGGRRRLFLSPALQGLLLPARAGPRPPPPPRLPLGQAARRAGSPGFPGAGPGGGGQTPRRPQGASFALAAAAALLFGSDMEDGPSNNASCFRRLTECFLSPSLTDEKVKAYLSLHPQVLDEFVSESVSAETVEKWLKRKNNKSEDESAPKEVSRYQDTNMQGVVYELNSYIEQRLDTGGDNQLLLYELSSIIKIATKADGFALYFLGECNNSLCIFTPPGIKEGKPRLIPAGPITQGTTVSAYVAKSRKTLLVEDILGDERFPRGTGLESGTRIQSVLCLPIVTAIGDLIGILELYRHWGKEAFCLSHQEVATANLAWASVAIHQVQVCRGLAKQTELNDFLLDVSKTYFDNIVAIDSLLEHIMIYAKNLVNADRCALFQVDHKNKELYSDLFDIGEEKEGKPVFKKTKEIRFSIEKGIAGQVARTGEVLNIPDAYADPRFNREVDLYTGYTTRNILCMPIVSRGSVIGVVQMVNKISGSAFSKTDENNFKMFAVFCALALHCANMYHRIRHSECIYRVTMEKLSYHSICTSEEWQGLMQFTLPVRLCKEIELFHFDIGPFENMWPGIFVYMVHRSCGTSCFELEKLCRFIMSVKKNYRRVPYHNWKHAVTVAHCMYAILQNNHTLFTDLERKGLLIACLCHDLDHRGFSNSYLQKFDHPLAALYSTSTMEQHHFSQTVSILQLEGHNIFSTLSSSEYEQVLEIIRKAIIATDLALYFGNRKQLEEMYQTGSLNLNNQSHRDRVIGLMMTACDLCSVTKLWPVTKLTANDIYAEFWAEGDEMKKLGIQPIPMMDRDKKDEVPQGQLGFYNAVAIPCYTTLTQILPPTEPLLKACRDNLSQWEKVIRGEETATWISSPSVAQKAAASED

| Compound | IC50 |
| --- | --- |
| Cc1cc(-c2cccnc2O[C@H]2CC[C@H](Nc3nc4ccccc4s3)CC2)ccn1 | 19.6 nM |
| Cc1ccnc(N[C@H]2CC[C@H](Oc3ncccc3C3CCOCC3)CC2)c1 | 150 nM |
| Cc1cccnc1N[C@H]1CC[C@H](Oc2ncccc2C2CCOCC2)CC1 | 46 nM |
| Cc1cccc(N[C@H]2CC[C@H](Oc3ncccc3C3CCOCC3)CC2)n1 | 1750 nM |
| c1cnc(O[C@H]2CC[C@H](Nc3ccc4ccccc4n3)CC2)c(C2CCOCC2)c1 | 91 nM |
| c1cnc(O[C@H]2CC[C@H](Nc3nc4ccccc4o3)CC2)c(C2CCOCC2)c1 | 12 nM |
| c1cnc(O[C@H]2CC[C@H](Nc3nc4ccccc4s3)CC2)c(C2CCOCC2)c1 | 32.5 nM |
| Cc1ccc(N[C@H]2C[C@H](Oc3ncccc3C3CCOCC3)C2)nc1 | 17.6 nM |
| CC(=O)N1CCC(c2nccnc2O[C@H]2C[C@@H](Nc3nc4ccccc4s3)C2)CC1 | 2.77 nM |
| CC(=O)N1CCC(c2nccnc2O[C@H]2C[C@H](Nc3ccc4ccccc4n3)C2)CC1 | 15.8 nM |
| O=C(c1ccccn1)C1CC(Oc2ncccc2C2CCOCC2)C1 (centres undefined) | 250 nM |
| CC(=O)N1CCC(c2nccnc2O[C@H]2C[C@@H](Nc3ccc(C)cn3)C2)CC1 | 66.1 nM |
| CC(=O)N1CCC(c2nccnc2O[C@H]2C[C@H](Nc3ccc(C)cn3)C2)CC1 | 84.6 nM |
| Fc1cccc2sc(N[C@H]3C[C@@H](Oc4nccnc4C4CCOCC4)C3)nc12 | 13 nM |
| Fc1ccc2sc(N[C@H]3C[C@@H](Oc4nccnc4C4CCOCC4)C3)nc2c1 | 18.3 nM |
| Fc1ccc2nc(N[C@H]3C[C@@H](Oc4nccnc4C4CCOCC4)C3)sc2c1 | 15.1 nM |
| Cc1cc(-c2nccnc2O[C@H]2C[C@@H](Nc3nc4ccccc4s3)C2)ccn1 | 20.5 nM |
| Clc1ccc(-c2nccnc2O[C@H]2C[C@@H](Nc3nc4ccccc4s3)C2)cn1 | 7.66 nM |
| Cc1ccc(-c2nccnc2O[C@H]2C[C@@H](Nc3nc4cc(F)ccc4s3)C2)cn1 | 19.7 nM |

| Compound | IC50 |
| --- | --- |
| N#Cc1ccc(-c2nccnc2O[C@H]2C[C@@H](Nc3ccc4ccccc4n3)C2)cn1 | 8.35 nM |
| N#Cc1ccc(-c2nccnc2O[C@H]2C[C@@H](Nc3ncc4ccccc4n3)C2)cn1 | 7.71 nM |
| COC(=O)N1CC(c2nccnc2O[C@H]2C[C@@H](Nc3nc4ccccc4s3)C2)C1 | 17.5 nM |
| COCC(=O)N1CCC(c2nccnc2O[C@H]2C[C@@H](Nc3ccc4ccccc4n3)C2)CC1 | 5.06 nM |
| c1ccc2sc(N[C@H]3C[C@@H](Oc4nccnc4N4CCOCC4)C3)nc2c1 | 22.4 nM |
| N#CC1CCN(c2nccnc2O[C@H]2C[C@@H](Nc3nc4ccccc4s3)C2)C1 (some centres undefined) | 1.07 nM |
| CC1CCCN(c2nccnc2O[C@H]2C[C@@H](Nc3nc4ccccc4s3)C2)C1 (some centres undefined) | 29.4 nM |
| OCC1CCCN(c2nccnc2O[C@H]2C[C@@H](Nc3nc4ccccc4s3)C2)C1 (some centres undefined) | 3.62 nM |
| FC1(F)CCN(c2nccnc2O[C@H]2C[C@@H](Nc3nc4ccccc4s3)C2)C1 | 11.1 nM |
| O=S1(=O)CCN(c2nccnc2O[C@H]2C[C@@H](Nc3nc4ccccc4s3)C2)CC1 | 18.5 nM |
| O[C@@H]1CCN(c2nccnc2O[C@H]2C[C@@H](Nc3nc4ccccc4s3)C2)C1 | 14.2 nM |
| O[C@H]1CCN(c2nccnc2O[C@H]2C[C@@H](Nc3nc4ccccc4s3)C2)C1 | 17.5 nM |
| CN1CCN(c2nccnc2O[C@H]2C[C@@H](Nc3nc4ccccc4s3)C2)CC1 | 122 nM |
| CN1CCN(c2nccnc2O[C@H]2C[C@@H](Nc3ncc4ccccc4n3)C2)CC1 | 316 nM |
| OCC1CCN(c2nccnc2O[C@H]2C[C@@H](Nc3ncc4ccccc4n3)C2)CC1 | 10.9 nM |
| CC(=O)N1CCN(c2nccnc2O[C@H]2C[C@@H](Nc3nc4ccccc4s3)C2)CC1 | 9.26 nM |
| CC(=O)N1CCN(c2nccnc2O[C@H]2C[C@@H](Nc3ccc4ccccc4n3)C2)CC1 | 23.7 nM |
| c1ccc2nc(N[C@H]3C[C@@H](Oc4nccnc4C4CCOCC4)C3)ccc2c1 | 7.5 nM |
| O=C(c1nc2ccccc2[nH]1)[C@H]1C[C@H](Oc2ncccc2C2CCOCC2)C1 | 7.15 nM |

Continued, values first:

| IC50 | Compound |
| --- | --- |
| 1.32 nM | CC(=O)N1CCC(c2cccnc2O[C@H]2C[C@@H](Nc3ccc4ccccc4n3)C2)CC1 |
| 3.8 nM | NC(=O)c1ccc(-c2nccnc2O[C@H]2C[C@@H](Nc3ccc4ccccc4n3)C2)cn1 |
| 1.53 nM | c1cnc(O[C@H]2C[C@@H](Nc3nc4ccccc4[nH]3)C2)c(C2CCOCC2)c1 |
| 2.63 nM | c1cnc(O[C@H]2C[C@H](Nc3nc4ccccc4[nH]3)C2)c(C2CCOCC2)c1 |
| 3.19 nM | c1cnc(O[C@H]2C[C@H](Nc3nc4ccccc4s3)C2)c(C2CCOCC2)c1 |
| 0.751 nM | c1cnc(O[C@H]2C[C@@H](Nc3nc4ccccc4s3)C2)c(C2CCOCC2)c1 |
| 5.43 nM | Fc1cnc(O[C@H]2C[C@@H](Nc3nc4c(F)cccc4s3)C2)c(C2CCOCC2)c1 |
| 3.49 nM | Fc1cnc(O[C@H]2C[C@@H](Nc3nc4cc(F)ccc4s3)C2)c(C2CCOCC2)c1 |
| 3.55 nM | Clc1ccc(C2=CCOCC2)c(O[C@H]2C[C@@H](Nc3nc4ccccc4s3)C2)n1 |
| 4.23 nM | Cc1cnccc1-c1nccnc1O[C@H]1C[C@@H](Nc2nc3ccccc3s2)C1 |
| 4.11 nM | COc1ncccc1-c1nccnc1O[C@H]1C[C@@H](Nc2nc3ccccc3s2)C1 |
| 3.25 nM | Cc1ncc(-c2nccnc2O[C@H]2C[C@@H](Nc3nc4ccccc4s3)C2)cn1 |
| 7.4 nM | N#Cc1ccc(-c2nccnc2O[C@H]2C[C@@H](Nc3nc4ccccc4s3)C2)cn1 |
| 2.97 nM | N#Cc1ccc(-c2cccnc2O[C@H]2C[C@H](Nc3nc4ccccc4s3)C2)cn1 |
| 2.96 nM | NC(=O)c1ccc(-c2nccnc2O[C@H]2C[C@@H](Nc3nc4ccccc4s3)C2)cn1 |
| 0.129 nM | NC(=O)c1ccc(-c2cccnc2O[C@H]2C[C@@H](Nc3nc4ccccc4s3)C2)cn1 |
| 6.57 nM | COCC(=O)N1CCC(c2nccnc2O[C@H]2C[C@@H](Nc3nc4ccccc4s3)C2)CC1 |
| 3.18 nM | COC(=O)N1CCC(c2cccnc2O[C@H]2C[C@@H](Nc3nc4ccccc4s3)C2)CC1 |
| 0.948 nM | COCC(=O)N1CCC(c2cccnc2O[C@H]2C[C@@H](Nc3ccc4ccccc4n3)C2)CC1 |
| 3.16 nM | OCC1CCN(c2nccnc2O[C@H]2C[C@@H](Nc3nc4ccccc4s3)C2)CC1 |
| 6.92 nM | CC1CCN(c2nccnc2O[C@H]2C[C@@H](Nc3nc4ccccc4s3)C2)C1 (some centres undefined) |
| 2.31 nM | N#CC1CCN(c2nccnc2O[C@H]2C[C@@H](Nc3nc4ccccc4s3)C2)CC1 |
| 2.26 nM | N#CC1CCN(c2nccnc2O[C@H]2C[C@@H](Nc3ccc4ccccc4n3)C2)CC1 |
| 1.25 nM | N#CC1CCN(c2cccnc2O[C@H]2C[C@@H](Nc3nc4ccccc4s3)C2)CC1 |
| 1.5 nM | c1cnc(O[C@H]2C[C@@H](Nc3ccc4ccccc4n3)C2)c(C2CCOCC2)c1 |
| 4.24 nM | COC(=O)N1CCC(c2nccnc2O[C@H]2C[C@@H](Nc3nc4ccccc4s3)C2)CC1 |
